Data: US9175024B2, “Platinum compound having amino or alkylamino-containing succinic acid derivatives as leaving group, preparation method thereof, and use thereof” (BEIJING FSWELCOME TECHNOLOGY DEVELOPMENT CO., LTD., priority 2011, dated 2015)
pIC50: −log10 of the molar value. “And” between values parts separate entries of the source, which are not always exact repeats. Equal values may be shown once.

Key:
normal mice = assay: Acute toxic effect of platinum complex on normal mice (LD50, single intravenous administration); assay type: in vivo, Kunming mice; details: single intravenous administration in 5% glucose solution, 14 days observation, Bliss method
Method: (§1) Kunming mice at 4˜6 weeks old and at the weight of 18˜22 g were taken, 50% male and 50% female. Embodiment platinum compound was dissolved with 5% glucose solution. […] Mortality and toxicity were observed after administration, totally observing 14 days, LD50 value was calculated with Bliss method according to mortality.

Breast cancer MCF-7 [1] = assay: MTT cytotoxicity, breast cancer MCF-7; assay type: cell-based; details: n = 6, Breast cancer MCF-7
Method: (§2) Several kinds of tumor cells in exponential growth phase were prepared into single cell suspension, inoculated on 96 pore plat at the density of 4×10^4/hole, cultivated for 24 hours to enable to adhere to wall with 1640 culture medium containing 10% fetal calf serum (complete medium) at 37° C.; the final culture volume was 100 μl. Cell morphology was observed after culture for 24 hours.

[2] = system: Breast cancer MCF-7 Cisplatin resistance strain; assay: MTT cytotoxicity, breast cancer MCF-7 cisplatin resistance strain; assay type: cell-based; details: n = 6, Breast cancer MCF-7 Cisplatin resistance strain
Method: as §2

Lung cancer A549 = assay: MTT cytotoxicity, lung cancer A549; assay type: cell-based; details: n = 6, Lung cancer A549
Method: as §2

Lung cancer H292 = assay: MTT cytotoxicity, lung cancer H292; assay type: cell-based; details: n = 6, Lung cancer H292
Method: as §2

[3] = system: Pulmonary epithelial cell BEAS-2B; assay: MTT cytotoxicity, pulmonary epithelial cell BEAS-2B; assay type: cell-based; details: n = 6, Pulmonary epithelial cell BEAS-2B
Method: as §2

Lewis lung cancer = assay: MTT cytotoxicity, Lewis lung cancer; assay type: cell-based; details: n = 6, Lewis lung cancer
Method: as §2

Colon cancer SW480 [4] = assay: MTT cytotoxicity, colon cancer SW480; assay type: cell-based; details: n = 6, Colon cancer SW480
Method: as §2

Testis cell ST = assay: MTT cytotoxicity, testis cell ST; assay type: cell-based; details: n = 6, Testis cell ST
Method: as §2

Gastric cancer MGC803 = assay: MTT cytotoxicity, gastric cancer MGC803; assay type: cell-based; details: n = 6, Gastric cancer MGC803
Method: as §2

Esophagus cancer ECA109 = assay: MTT cytotoxicity, esophagus cancer ECA109; assay type: cell-based; details: n = 6, Esophagus cancer ECA109
Method: as §2

colon cancer SW480 [5] = assay: In vivo antitumor activity, colon cancer SW480 in nude mice; details: SW480 in male nude mice, once a week, 4 times, tumor weighed after 4 weeks
Text: The calculation formula of tumor inhabitation rate is: […]

breast cancer MCF-7 [6] = assay: In vivo antitumor activity, breast cancer MCF-7 in nude mice; details: MCF-7 in female nude mice, 30 mg (platinum)/kg, once a week, 4 times, tumor weighed 4 weeks later
[7] = Acute toxic effect of platinum complex on normal mice (LD50, single intravenous administration); assay type: in vivo, Kunming mice; details: both sexes, Kunming, mouse, in vivo; single intravenous administration in 5% glucose solution, 14 days observation, Bliss method
Method: as §1

physchem = details: water

SMILES	LD50 value (normal mice) [mmol/kg]	pIC50 (Breast cancer MCF-7 [1])	pIC50 [2]	pIC50 (Lung cancer A549)	pIC50 (Lung cancer H292)	pIC50 [3]	pIC50 (Lewis lung cancer)	pIC50 (Colon cancer SW480 [4])	pIC50 (Testis cell ST)	pIC50 (Gastric cancer MGC803)	pIC50 (Esophagus cancer ECA109)	Tumor inhibition rate (x ± SD) (colon cancer SW480 [5]; 30 mg (platinum)/kg) [%]	Tumor inhibition rate (x ± SD) (breast cancer MCF-7 [6])	Tumor inhibition rate (x ± SD) (colon cancer SW480 [5]; 10 mg (platinum)/kg) [%]	LD50 at 14 days [7] [µmol/kg]	solubility (physchem) [mg/mL]
NC(CC(=O)[O-])C(=O)[O-].NC1CCCCC1N.[Pt+2] (racemic) [ADP, [DL-2-amino-succinato].[trans-hexamethylenediamine]platinum (II), reference compound]	0.332	4.14	3.81	3.84	4.21	3.97	3.79	4.01	3.73	3.80	4.01 and 3.79	45.3 ± 11.21	68.3 ± 10.27 9%	–	–	–
CCN(CC)CCC(CC(=O)[O-])C(=O)[O-].NC1CCCCC1N.[Pt+2] (racemic) [Compound 10, [2-(2-diethyl amino ethyl)-succinato].[Cis-(1,2-trans-cyclohexyldiamine)]platinum (II)]	0.595	–	–	–	4.62	4.60	4.55	5.30	–	–	–	–	–	55.1 ± 9.07	–	–
NC1CCCCC1N.O=C([O-])CC(CCCN1CCCCC1)C(=O)[O-].[Pt+2] (racemic) [Compound 13, [2-(3-(1-piperidyl)propyl)-succinato].[Cis-(1,2-trans-cyclohexyldiamine)]platinum (II)]	0.542	–	–	–	4.24	4.92	4.49	4.02	–	–	–	–	–	56.3 ± 6.81	–	–
NCCC(CC(=O)[O-])C(=O)[O-].N[C@@H]1CCCC[C@H]1N.[Pt+2] (relative stereo) [Compound 9, [2-(2-aminoethyl)-succinato].[Cis-(1,2-trans-cyclohexyldiamine)]platinum (II)]	0.429	–	–	–	4.59	4.77	4.08	4.21	–	–	–	–	–	44.8 ± 10.8	–	–
CN(C)CCCC1CC(=O)[O][Pt]2([NH]C3CCCCC3[NH]2)[O]C1=O (stereo not drawn) [Compound 11, [2-(3-dimethylamino propyl)-succinato].[Cis-(1,2-trans-cyclohexyldiamine)]platinum (II)]	0.571	–	–	–	4.89	4.35	4.29	4.66	–	–	–	–	–	46.3 ± 9.88	–	–
CCNCCC1CC(=O)[O][Pt]2([NH]C3CCCCC3[NH]2)[O]C1=O (stereo not drawn) [Compound 12, [2-(2-ethylamino ethyl)-succinato].[Cis-(1,2-trans-cyclohexyldiamine)]platinum (II)]	0.602	–	–	–	4.21	4.24	4.16	4.14	–	–	–	–	–	46.8 ± 9.17	–	–
CCN(CC)CCCCC1CC(=O)[O][Pt]([NH2])([NH2])[O]C1=O (stereo not drawn) [Compound 27, [2-(4-diethylamino butyl)-succinato].[Cis-diamine]platinum (II) acetate]	–	–	–	–	–	–	–	–	–	–	–	–	–	–	557	143
CC(=O)NC(CC(=O)[O-])C(=O)[O-].NC1CCCCC1N.[Pt+2] (centres unmarked) [Contrast Embodiment 1, reference compound]	0.092	3.20	3.37	3.36	3.60 and 3.45 and 3.44	3.36	3.26	3.21	3.62	3.28	3.33	–	–	–	–	–
